In the assay the test system is CD2F1 mice, P388/DHAQ leukemia ip, median survival T/C. Put plainly: NCI In Vivo Anticancer Drug Screen. Data for tumor model P388 Leukemia resistant to Dihydroxy Anthracenedione; NSC 299195 (intraperitoneal) in CD2F1 (CDF1) mice. The settings on record: endpoint: median survival time, higher = longer survival. As for the experimental part: The antitumor activity of compounds was measured in mice bearing transplantable tumors. Survival or tumor size were measured and the results are expressed as the measurement made in the treated group (T) divided by the measurement made in the vehicle treated control group (C). The tumor model used in this assay is P388 Leukemia resistant to Dihydroxy Anthracenedione; NSC 299195 (intraperitoneal) in CD2F1 (CDF1) mice

The mark [1] stands for this setting: dose: 13.0 mg/kg/injection, schedule: Q04DX003 (ip), vehicle: saline.

For 9 compounds, T/C results are on record in PubChem BioAssay AID326 (DTP/NCI, 2004).

Molecules are shown by their SMILES. Values joined by “and” are separate entries in the source; they are usually repeats but may differ in a detail not shown here. Identical values can stand only once. Inconclusive results and toxic doses are left out.

`O=C1c2c(O)ccc(O)c2C(=O)c2c(NCCNCCO)ccc(NCCNCCO)c21`: the T/C is, setting by setting: (dose: 0.65 mg/kg/injection, schedule: Q04DX003 (ip), vehicle: saline) 112 % of control; (dose: 0.78 mg/kg/injection, schedule: Q04DX003 (ip), vehicle: saline) 119 % of control and 111 % of control; (dose: 1.08 mg/kg/injection, schedule: Q04DX003 (ip), vehicle: saline) 107 % of control; (dose: 1.3 mg/kg/injection, schedule: Q04DX002 (ip), vehicle: water) 112 % of control and 114 % of control and 100 % of control; (dose: 1.62 mg/kg/injection, schedule: Q04DX003 (ip), vehicle: saline) 104 % of control; (dose: 2.16 mg/kg/injection, schedule: Q04DX002 (ip), vehicle: water) 103 % of control and 120 % of control. Further, the T/C by setting is: (dose: 2.7 mg/kg/injection, schedule: Q04DX003 (ip), vehicle: saline) 119 % of control; (dose: 3.6 mg/kg/injection, schedule: Q04DX002 (ip), vehicle: water) 104 % of control and 105 % of control and 97 % of control; (dose: 4.0 mg/kg/injection, schedule: Q04DX002 (ip), vehicle: water) 100 % of control; (dose: 4.5 mg/kg/injection, schedule: Q04DX003 (ip), vehicle: saline) 124 % of control; (dose: 6.0 mg/kg/injection, schedule: Q04DX002 (ip), vehicle: water) 93 % of control and 96 % of control and 97 % of control; (dose: 6.67 mg/kg/injection, schedule: Q04DX002 (ip), vehicle: water) 106 % of control. The T/C (dose: 7.5 mg/kg/injection, schedule: Q04DX003 (ip), vehicle: saline) was 120 % of control; the T/C (dose: 10.0 mg/kg/injection, schedule: Q04DX002 (ip), vehicle: water) is 87 % of control and 88 % of control; the T/C (dose: 10.0 mg/kg/injection, schedule: Q04DX003 (ip), vehicle: saline) is 109 % of control.

In the case of `CN(Cc1cnc2nc(N)nc(N)c2n1)c1ccc(C(=O)N[C@@H](CCC(=O)O)C(=O)O)cc1`, the T/C was 161 % of control and 192 % of control (dose: 8.64 mg/kg/injection, schedule: Q04DX003 (ip), vehicle: sodium bicarbonate); 168 % of control and 195 % of control (dose: 14.4 mg/kg/injection, schedule: Q04DX003 (ip), vehicle: sodium bicarbonate); 108 % of control and 214 % of control (dose: 24.0 mg/kg/injection, schedule: Q04DX003 (ip), vehicle: sodium bicarbonate); 92 % of control (dose: 40.0 mg/kg/injection, schedule: Q04DX003 (ip), vehicle: sodium bicarbonate).

As for `O=c1[nH]cc(F)c(=O)[nH]1`, the T/C is 104 % of control under setting [1]; 116 % of control and 226 % of control (dose: 60.0 mg/kg/injection, schedule: Q04DX003 (ip), vehicle: saline); 109 % of control (dose: 100.0 mg/kg/injection, schedule: Q04DX003 (ip), vehicle: saline).

Consider `CCC1(O)CC2CN(CCc3c([nH]c4ccccc34)C(C(=O)OC)(c3cc4c(cc3OC)N(C)C3C(O)(C(N)=O)C(O)C5(CC)C=CCN6CCC43C65)C2)C1` (stereo not given) (tested in a mixture with another compound), for which the T/C (dose: 0.65 mg/kg/injection, schedule: Q04DX003 (ip), vehicle: clinical formulation) is 173 % of control; the T/C (dose: 1.08 mg/kg/injection, schedule: Q04DX003 (ip), vehicle: clinical formulation) is 182 % of control; the T/C (dose: 1.8 mg/kg/injection, schedule: Q04DX003 (ip), vehicle: clinical formulation) was 208 % of control; the T/C (dose: 3.0 mg/kg/injection, schedule: Q04DX003 (ip), vehicle: clinical formulation) is 87 % of control.

Take `O=C1c2ccccc2C(=O)c2c(NCCNCCO)ccc(O)c21`: the T/C reads like this: (dose: 19.4 mg/kg/injection, schedule: Q04DX003 (ip), vehicle: saline) 121 % of control; (dose: 32.4 mg/kg/injection, schedule: Q04DX003 (ip), vehicle: saline) 107 % of control; (dose: 54.0 mg/kg/injection, schedule: Q04DX003 (ip), vehicle: saline) 90 % of control.

As for `CCN(CC)CCNc1ccc(C)c2sc3ccccc3c(=O)c12`, the T/C is, setting by setting: (dose: 16.2 mg/kg/injection, schedule: Q01DX005 (ip), vehicle: saline) 106 % of control; (dose: 19.4 mg/kg/injection, schedule: Q01DX005 (ip), vehicle: saline) 100 % of control; (dose: 19.44 mg/kg/injection, schedule: Q01DX005 (ip), vehicle: saline) 106 % of control; (dose: 27.0 mg/kg/injection, schedule: Q01DX005 (ip), vehicle: saline) 107 % of control; (dose: 32.4 mg/kg/injection, schedule: Q01DX005 (ip), vehicle: saline) 102 % of control and 113 % of control; (dose: 38.9 mg/kg/injection, schedule: Q04DX003 (ip), vehicle: saline) 106 % of control. Besides, the T/C is 121 % of control (dose: 45.0 mg/kg/injection, schedule: Q01DX005 (ip), vehicle: saline); 106 % of control and 124 % of control (dose: 54.0 mg/kg/injection, schedule: Q01DX005 (ip), vehicle: saline); 104 % of control (dose: 64.8 mg/kg/injection, schedule: Q04DX003 (ip), vehicle: saline); 112 % of control (dose: 90.0 mg/kg/injection, schedule: Q01DX005 (ip), vehicle: saline); 120 % of control (dose: 108.0 mg/kg/injection, schedule: Q04DX003 (ip), vehicle: saline); 105 % of control (dose: 125.0 mg/kg/injection, schedule: Q01DX005 (ip), vehicle: saline).

As to `COc1cc([C@@H]2c3cc4c(cc3[C@@H](OC3OC5CO[C@@H](c6cccs6)OC5C(O)C3O)[C@H]3COC(=O)[C@H]23)OCO4)cc(OC)c1O` (stereo not given in full), the T/C reads like this: (dose: 3.89 mg/kg/injection, schedule: Q04DX003 (ip), vehicle: clinical formulation) 114 % of control; (dose: 3.89 mg/kg/injection, schedule: Q04DX003 (ip), vehicle: saline) 118 % of control; (dose: 6.48 mg/kg/injection, schedule: Q04DX003 (ip), vehicle: clinical formulation) 121 % of control; (dose: 7.78 mg/kg/injection, schedule: Q04DX003 (ip), vehicle: saline) 108 % of control; (dose: 10.8 mg/kg/injection, schedule: Q04DX003 (ip), vehicle: clinical formulation) 122 % of control; under setting [1], 108 % of control. Further, the T/C runs as follows: (dose: 21.6 mg/kg/injection, schedule: Q04DX003 (ip), vehicle: saline) 111 % of control; (dose: 36.0 mg/kg/injection, schedule: Q04DX003 (ip), vehicle: saline) 120 % of control.

Take `S=P(N1CC1)(N1CC1)N1CC1`: the T/C is, setting by setting: (dose: 3.24 mg/kg/injection, schedule: Q04DX002 (ip), vehicle: saline) 103 % of control; (dose: 5.4 mg/kg/injection, schedule: Q04DX002 (ip), vehicle: saline) 122 % of control; (dose: 15.0 mg/kg/injection, schedule: Q04DX002 (ip), vehicle: saline) 183 % of control.

As for `CC(=O)N(C)c1ccc(Nc2cc(C)[nH]c3ccc4ncnc4c23)cc1`, the T/C is, setting by setting: (dose: 19.4 mg/kg/injection, schedule: Q04DX002 (ip), vehicle: saline) 98 % of control; (dose: 20.7 mg/kg/injection, schedule: Q04DX002 (ip), vehicle: saline) 98 % of control; (dose: 32.4 mg/kg/injection, schedule: Q04DX002 (ip), vehicle: saline) 94 % of control; (dose: 34.6 mg/kg/injection, schedule: Q04DX002 (ip), vehicle: saline) 91 % of control; (dose: 54.0 mg/kg/injection, schedule: Q04DX002 (ip), vehicle: saline) 116 % of control; (dose: 57.6 mg/kg/injection, schedule: Q04DX002 (ip), vehicle: saline) 94 % of control. The T/C is, setting by setting: (dose: 96.0 mg/kg/injection, schedule: Q04DX002 (ip), vehicle: saline) 108 % of control; (dose: 160.0 mg/kg/injection, schedule: Q04DX002 (ip), vehicle: saline) 98 % of control.
